Consider 31 molecules from patent publication US8901133B2, “Heterocyclic compounds and uses thereof” (Infinity Pharmaceuticals, Inc., priority 2010, dated 2014).

What all share (format): biochemical
In experiment [1] the target is T1, PI3Kα (Homo sapiens, UniProt P42336).
T1 construct: purchased Millipore Corporation 14-602-K
As to the kind of experiment: PI3 Kinase HTRF assay, PI3Kα. Conditions: 10 μM PIP2, 10 μM ATP; read-out: PI3K α IC50. The source says: (§1) A PI3 Kinase HTRF® assay kit (cat No. 33-016) purchased from Millipore Corporation was used to screen compounds disclosed herein. This assay used specific, high affinity binding of the GRP1 pleckstrin homology (PH) domain to PIP3, the product of a Class 1A or 1B PI3 Kinase acting on its physiological substrate PIP2. During the detection phase of the assay, a complex was generated between the GST-tagged PH domain and biotinylated short chain PIP3. The biotinylated PIP3 and the GST-tagged PH domain recruited fluorophores (Streptavidin-Allophycocyanin and Europium-labeled anti-GST respectively) to form the fluorescence resonance energy transfer (FRET) architecture, generating a stable time-resolved FRET signal. The FRET complex was disrupted in a competitive manner by non-biotinylated PIP3, a product formed in the PI3 Kinase assay.
(§2) PI3 Kinase α, β, γ and δ activity was assayed using the PI3 Kinase HTRF® assay kit (catalogue No. 33-016) purchased from Millipore Corporation. Purified recombinant PI3Kα (catalogue No. 14-602-K), PI3Kβ (catalogue No. 14-603-K), PI3Kγ (catalogue No. 14-558-K) and PI3Kδ (catalogue No. 14-604-K) were obtained from Millipore Corporation. Purified recombinant PI3K enzyme was used to catalyze the phosphorylation of phosphatidylinositol 4,5-bisphosphate (PIP2 at 10 μM) to phosphatidylinositol 3,4,5-trisphosphate (PIP3) in the presence of 10 μM ATP. The assay was carried out in 384-well format and detected using a Perkin Elmer En Vision Xcite Multilabel Reader. Emission ratios were converted into percent inhibitions and imported into GraphPad Prism software. The concentration necessary to achieve inhibition of enzyme activity by 50% (IC50) was calculated using concentrations ranging from 20 μM to 0.1 nM (12-point curve). IC50 values were determined using a nonlinear regression model available in GraphPad Prism 5. […]

Experiment [2] has as its target T2, PI3Kγ (Homo sapiens, UniProt P48736).
T2 construct: purchased Millipore Corporation 14-558-K
The experiment in a line: PI3 Kinase HTRF assay, PI3Kγ. Conditions: 10 μM PIP2, 10 μM ATP; read-out: PI3K γ IC50.
Source text: as §1, §2

Experiment [3] addresses T3, PI3Kβ (Homo sapiens, UniProt P42338).
T3 construct: purchased Millipore Corporation 14-603-K
As to the kind of experiment: PI3 Kinase HTRF assay, PI3Kβ. Conditions: 10 μM PIP2, 10 μM ATP; read-out: PI3K β IC50.
Source text: as §1, §2

Experiment [4] deals with T4, PI3Kδ (Homo sapiens, UniProt O00329).
T4 construct: purchased Millipore Corporation 14-604-K
As to the kind of experiment: PI3 Kinase HTRF assay, PI3Kδ. The settings on record: 10 μM PIP2, 10 μM ATP; read-out: PI3K δ IC50.
Source text: as §1, §2

T4 sequence (O00329 whole entry): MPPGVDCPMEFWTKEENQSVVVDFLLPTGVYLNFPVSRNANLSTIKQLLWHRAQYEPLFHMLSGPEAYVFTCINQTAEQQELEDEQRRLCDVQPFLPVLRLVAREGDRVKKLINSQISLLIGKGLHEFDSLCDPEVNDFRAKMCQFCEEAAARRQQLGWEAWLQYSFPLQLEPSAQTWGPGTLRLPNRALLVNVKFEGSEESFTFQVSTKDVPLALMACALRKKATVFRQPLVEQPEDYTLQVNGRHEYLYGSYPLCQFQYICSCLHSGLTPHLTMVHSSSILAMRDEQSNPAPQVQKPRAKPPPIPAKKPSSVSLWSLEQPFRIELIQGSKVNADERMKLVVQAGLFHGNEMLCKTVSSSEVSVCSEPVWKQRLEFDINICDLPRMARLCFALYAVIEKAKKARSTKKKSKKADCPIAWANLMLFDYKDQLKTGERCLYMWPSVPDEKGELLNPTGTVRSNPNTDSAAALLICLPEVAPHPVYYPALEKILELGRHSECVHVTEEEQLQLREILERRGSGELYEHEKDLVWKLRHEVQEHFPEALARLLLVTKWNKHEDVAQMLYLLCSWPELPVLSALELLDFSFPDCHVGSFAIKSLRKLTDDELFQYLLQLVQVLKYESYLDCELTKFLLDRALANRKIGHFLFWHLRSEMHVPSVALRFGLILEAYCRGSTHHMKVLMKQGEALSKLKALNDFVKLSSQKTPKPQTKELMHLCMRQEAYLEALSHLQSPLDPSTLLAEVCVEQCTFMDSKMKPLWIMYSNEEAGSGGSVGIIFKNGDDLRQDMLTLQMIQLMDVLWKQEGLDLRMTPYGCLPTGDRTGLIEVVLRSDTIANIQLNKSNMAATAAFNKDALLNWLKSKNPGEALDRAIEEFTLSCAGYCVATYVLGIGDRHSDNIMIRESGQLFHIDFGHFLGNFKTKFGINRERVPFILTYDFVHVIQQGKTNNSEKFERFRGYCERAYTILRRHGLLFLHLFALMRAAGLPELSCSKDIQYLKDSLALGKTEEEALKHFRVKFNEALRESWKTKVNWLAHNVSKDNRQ
T4 sequence (P27986 whole entry partner): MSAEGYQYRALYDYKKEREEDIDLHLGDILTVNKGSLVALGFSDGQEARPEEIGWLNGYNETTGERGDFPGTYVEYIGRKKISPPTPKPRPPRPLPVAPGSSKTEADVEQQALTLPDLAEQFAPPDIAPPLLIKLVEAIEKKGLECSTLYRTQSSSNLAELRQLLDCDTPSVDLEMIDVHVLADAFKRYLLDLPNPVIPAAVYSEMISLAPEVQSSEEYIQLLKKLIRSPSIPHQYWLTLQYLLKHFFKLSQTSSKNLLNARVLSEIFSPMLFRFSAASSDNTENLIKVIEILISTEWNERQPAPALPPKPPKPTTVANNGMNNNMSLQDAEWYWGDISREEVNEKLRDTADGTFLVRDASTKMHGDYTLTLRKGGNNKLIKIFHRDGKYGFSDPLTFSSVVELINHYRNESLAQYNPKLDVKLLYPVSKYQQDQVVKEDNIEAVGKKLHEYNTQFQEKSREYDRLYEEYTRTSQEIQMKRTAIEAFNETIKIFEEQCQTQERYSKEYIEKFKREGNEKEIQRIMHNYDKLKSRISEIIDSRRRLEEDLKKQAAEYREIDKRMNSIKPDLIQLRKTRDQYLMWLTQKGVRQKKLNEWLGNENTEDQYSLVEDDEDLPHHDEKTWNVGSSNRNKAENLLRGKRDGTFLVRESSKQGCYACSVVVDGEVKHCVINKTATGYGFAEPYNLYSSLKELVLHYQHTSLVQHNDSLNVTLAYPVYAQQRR
T1 sequence (P42336 whole entry): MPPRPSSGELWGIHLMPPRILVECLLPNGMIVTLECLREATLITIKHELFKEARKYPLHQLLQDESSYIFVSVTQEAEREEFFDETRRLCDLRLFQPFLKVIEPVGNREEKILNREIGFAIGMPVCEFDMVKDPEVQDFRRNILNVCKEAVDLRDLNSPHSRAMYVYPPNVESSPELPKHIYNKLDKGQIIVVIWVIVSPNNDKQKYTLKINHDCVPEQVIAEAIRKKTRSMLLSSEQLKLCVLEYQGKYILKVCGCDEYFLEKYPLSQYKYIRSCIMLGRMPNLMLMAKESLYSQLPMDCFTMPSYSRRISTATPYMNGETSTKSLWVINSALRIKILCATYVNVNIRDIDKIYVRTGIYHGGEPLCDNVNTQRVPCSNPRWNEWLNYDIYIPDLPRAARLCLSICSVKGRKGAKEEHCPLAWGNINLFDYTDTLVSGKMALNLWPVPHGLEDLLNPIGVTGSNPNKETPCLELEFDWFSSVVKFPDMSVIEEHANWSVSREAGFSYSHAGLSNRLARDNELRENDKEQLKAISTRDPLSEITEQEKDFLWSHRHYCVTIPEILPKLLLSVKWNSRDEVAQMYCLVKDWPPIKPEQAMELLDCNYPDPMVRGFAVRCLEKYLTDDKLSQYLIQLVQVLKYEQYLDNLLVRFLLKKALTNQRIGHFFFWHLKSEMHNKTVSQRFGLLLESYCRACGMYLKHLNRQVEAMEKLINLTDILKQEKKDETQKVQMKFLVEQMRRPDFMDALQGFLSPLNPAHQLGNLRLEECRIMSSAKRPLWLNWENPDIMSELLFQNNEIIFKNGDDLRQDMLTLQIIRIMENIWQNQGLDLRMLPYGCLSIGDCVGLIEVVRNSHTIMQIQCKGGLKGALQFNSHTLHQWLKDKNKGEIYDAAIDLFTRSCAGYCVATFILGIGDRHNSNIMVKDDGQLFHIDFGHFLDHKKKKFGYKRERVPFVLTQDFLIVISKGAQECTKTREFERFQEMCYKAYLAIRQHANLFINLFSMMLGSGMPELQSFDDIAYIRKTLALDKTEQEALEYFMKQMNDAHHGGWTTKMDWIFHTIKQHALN
T1 sequence (P27986 whole entry partner): as the sequence (P27986 whole entry partner) above
T3 sequence (P42338 whole entry): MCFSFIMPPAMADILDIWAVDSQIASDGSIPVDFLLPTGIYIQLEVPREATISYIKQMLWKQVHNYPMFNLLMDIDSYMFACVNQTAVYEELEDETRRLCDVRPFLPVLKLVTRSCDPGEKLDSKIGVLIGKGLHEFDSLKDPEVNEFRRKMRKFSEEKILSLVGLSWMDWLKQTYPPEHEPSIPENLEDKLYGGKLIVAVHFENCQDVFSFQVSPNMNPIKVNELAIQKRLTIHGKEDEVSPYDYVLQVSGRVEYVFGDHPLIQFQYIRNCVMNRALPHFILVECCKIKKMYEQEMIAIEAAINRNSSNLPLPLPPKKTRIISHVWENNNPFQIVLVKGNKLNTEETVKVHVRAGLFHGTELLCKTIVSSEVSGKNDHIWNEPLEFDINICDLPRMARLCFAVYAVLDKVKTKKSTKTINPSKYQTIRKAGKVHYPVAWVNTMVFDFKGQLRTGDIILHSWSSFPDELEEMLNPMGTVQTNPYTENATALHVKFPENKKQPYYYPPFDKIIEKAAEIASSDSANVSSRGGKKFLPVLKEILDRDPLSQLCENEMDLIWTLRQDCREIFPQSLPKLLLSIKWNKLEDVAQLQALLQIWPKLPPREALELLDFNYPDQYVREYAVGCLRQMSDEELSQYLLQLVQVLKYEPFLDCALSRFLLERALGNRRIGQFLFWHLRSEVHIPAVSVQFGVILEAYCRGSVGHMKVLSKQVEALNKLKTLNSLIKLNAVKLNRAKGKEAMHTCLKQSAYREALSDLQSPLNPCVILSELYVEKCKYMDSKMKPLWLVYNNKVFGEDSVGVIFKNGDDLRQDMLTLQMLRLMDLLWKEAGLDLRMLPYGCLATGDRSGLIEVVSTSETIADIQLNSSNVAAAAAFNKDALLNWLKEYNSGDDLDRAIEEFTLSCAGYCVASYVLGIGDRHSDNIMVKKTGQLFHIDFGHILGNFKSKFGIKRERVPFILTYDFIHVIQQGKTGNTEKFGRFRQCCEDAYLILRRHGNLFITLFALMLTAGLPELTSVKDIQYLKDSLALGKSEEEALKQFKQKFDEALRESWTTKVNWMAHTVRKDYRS
T3 sequence (P27986 whole entry partner): as the sequence (P27986 whole entry partner) above
T2 sequence (P48736 whole entry): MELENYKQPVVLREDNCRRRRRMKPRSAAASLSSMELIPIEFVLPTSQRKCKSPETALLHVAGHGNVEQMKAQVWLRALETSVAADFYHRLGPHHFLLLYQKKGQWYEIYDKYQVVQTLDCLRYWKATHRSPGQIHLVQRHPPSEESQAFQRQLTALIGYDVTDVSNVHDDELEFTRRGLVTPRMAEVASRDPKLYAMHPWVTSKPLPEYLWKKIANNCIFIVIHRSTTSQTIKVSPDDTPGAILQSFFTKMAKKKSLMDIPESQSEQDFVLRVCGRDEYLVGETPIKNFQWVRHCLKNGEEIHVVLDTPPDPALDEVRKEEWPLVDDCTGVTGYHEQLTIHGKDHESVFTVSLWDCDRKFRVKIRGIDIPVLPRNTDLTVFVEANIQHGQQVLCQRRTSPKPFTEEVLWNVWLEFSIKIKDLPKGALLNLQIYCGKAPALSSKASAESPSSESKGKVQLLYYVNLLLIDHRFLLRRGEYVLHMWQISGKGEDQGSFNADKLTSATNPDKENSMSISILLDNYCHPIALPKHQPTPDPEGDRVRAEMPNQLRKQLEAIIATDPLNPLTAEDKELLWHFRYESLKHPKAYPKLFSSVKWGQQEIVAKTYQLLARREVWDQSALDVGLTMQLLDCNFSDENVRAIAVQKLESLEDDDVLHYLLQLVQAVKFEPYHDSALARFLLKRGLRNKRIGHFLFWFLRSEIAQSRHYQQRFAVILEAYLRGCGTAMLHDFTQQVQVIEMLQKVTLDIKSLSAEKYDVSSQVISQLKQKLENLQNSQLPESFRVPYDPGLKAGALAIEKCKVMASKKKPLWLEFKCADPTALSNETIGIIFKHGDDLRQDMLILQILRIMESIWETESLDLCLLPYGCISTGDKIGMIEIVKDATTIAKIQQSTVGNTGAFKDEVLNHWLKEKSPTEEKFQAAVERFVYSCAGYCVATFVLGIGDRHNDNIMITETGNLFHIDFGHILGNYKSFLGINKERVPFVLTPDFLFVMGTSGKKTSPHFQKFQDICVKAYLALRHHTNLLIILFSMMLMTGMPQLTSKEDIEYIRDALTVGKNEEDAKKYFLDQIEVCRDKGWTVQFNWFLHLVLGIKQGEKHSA

For the molecule `C[C@H](Nc1ncnc2cccnc12)c1cc2cccc(-c3cnn(C)c3)c2c(C(=O)N2C3CCC2COC3)n1` [Compound 200], the IC50 is greater than 10 µM in experiment [1], greater than 10 µM in experiment [2], greater than 10 µM in experiment [3] and less than 1 µM in experiment [4].
Regarding `C[C@H](Nc1ncnc2[nH]cnc12)c1cc2cccc(-c3cnn(C)c3)c2c(C(=O)N2C3CCC2COC3)n1` [Compound 201], the IC50 in experiment [1] was greater than 10 µM; in experiment [2], less than 1 µM; in experiment [3] it was greater than 10 µM; in experiment [4] it was less than 0.1 µM.
As to `Cc1nc([C@H](C)Nc2ncnc3[nH]cnc23)cc2cccc(C(=O)N3CCN(C)CC3)c12` [Compound 202], the IC50 in experiment [1], in experiment [2], in experiment [3] and in experiment [4] was greater than 10 µM throughout.
For `C[C@H](Nc1ncnc2[nH]cc(C#N)c12)c1cc2cccc(Cl)c2c(C(=O)N2CCOCC2)n1` [Compound 203], the IC50 in experiment [1] is less than 10 µM; in experiment [2], less than 1 µM; in experiment [3], less than 10 µM; in experiment [4] it was less than 0.1 µM.
`C[C@H](Nc1ncnc2[nH]cc(F)c12)c1cc2cccc(Cl)c2c(C(=O)N2CCOCC2)n1` [Compound 205]: the IC50 in experiment [1] was less than 10 µM; in experiment [2], less than 1 µM; in experiment [3] it was less than 10 µM; in experiment [4], less than 0.1 µM.
On to `C[C@H](Nc1ncnc2[nH]cc(C#N)c12)c1cc2cccc(Cl)c2c(C(=O)N2C3CCC2COC3)n1` [Compound 206], for which the IC50 in experiment [1] was greater than 10 µM; in experiment [2], less than 10 µM; in experiment [3] it was less than 10 µM; in experiment [4], less than 0.1 µM.
Regarding `C[C@H](Nc1ncnc2scnc12)c1cc2cccc(Cl)c2c(C(=O)NC2CCNCC2)n1` [Compound 209], the IC50 in experiment [1] is less than 10 µM; in experiment [2], greater than 10 µM; in experiment [3], greater than 10 µM; in experiment [4], less than 0.1 µM.
`C[C@H](Nc1ncnc2scnc12)c1cc2cccc(Cl)c2c(C(=O)NC2CCN(C)CC2)n1` [Compound 210]: the half-inhibitory concentration (IC50) in experiment [1] is greater than 10 µM; in experiment [2] it was greater than 10 µM; in experiment [3], greater than 10 µM; in experiment [4] it was less than 0.1 µM.
Consider `CC(C)N1CCC(NC(=O)c2nc([C@H](C)Nc3ncnc4scnc34)cc3cccc(Cl)c23)CC1` [Compound 211], for which the IC50 was greater than 10 µM in experiment [1], greater than 10 µM in experiment [2], greater than 10 µM in experiment [3] and less than 1 µM in experiment [4].
Take `C[C@H](Nc1ncnc2scnc12)c1cc2cccc(Cl)c2c(C(=O)NC2CCOC2)n1` (stereo partly shown) [Compound 215]: the half-inhibitory concentration (IC50) in experiment [1] is greater than 10 µM; in experiment [2] it was less than 10 µM; in experiment [3] it was greater than 10 µM; in experiment [4], less than 0.1 µM.
On to `C[C@H](Nc1ncnc2scnc12)c1cc2cccc(Cl)c2c(C(=O)NCC2CCOCC2)n1` [Compound 216], for which the IC50 in experiment [1] was greater than 10 µM; in experiment [2] it was greater than 10 µM; in experiment [3] it was greater than 10 µM; in experiment [4], less than 1 µM.
For `C[C@H](Nc1nc(N)ncc1C(F)(F)F)c1cc2cccc(Cl)c2c(C(=O)N2CCOCC2)n1` [Compound 217], the IC50 was greater than 10 µM in experiment [1], less than 10 µM in experiment [2], greater than 10 µM in experiment [3] and less than 1 µM in experiment [4].
Regarding `C[C@H](Nc1ncnc2scnc12)c1cc2cccc(Cl)c2c(C(=O)N2CCNC(=O)C2)n1` [Compound 218], the IC50 in experiment [1] was greater than 10 µM; in experiment [2] it was less than 1 µM; in experiment [3] it was less than 10 µM; in experiment [4], less than 0.1 µM.
Taken in the same sequence, the figures for `C[C@H](Nc1ncnc2cccnc12)c1cc2cccc(Cl)c2c(C(=O)N2CCS(=O)(=O)CC2)n1` [Compound 219] were greater than 10 µM, less than 1 µM, greater than 10 µM and less than 1 µM.
On the same counts, the results for `CC1CN(C(=O)c2nc([C@H](C)Nc3ncnc4scnc34)cc3cccc(Cl)c23)CCO1` (stereo partly shown) [Compound 221] are greater than 10 µM, less than 1 µM, greater than 10 µM and less than 0.1 µM.
As to `CC1CN(C(=O)c2nc([C@H](C)Nc3ncnc4cccnc34)cc3cccc(Cl)c23)CCO1` (stereo partly shown) [Compound 222], the IC50 in experiment [1] was less than 10 µM; in experiment [2], less than 1 µM; in experiment [3], greater than 10 µM; in experiment [4], less than 1 µM.
For the molecule `C[C@H](Nc1ncnc2scnc12)c1cc2cccc(Cl)c2c(C(=O)N(C)C)n1` [Compound 223], the IC50 in experiment [1] is greater than 10 µM; in experiment [2], less than 1 µM; in experiment [3], less than 10 µM; in experiment [4], less than 1 µM.
Consider `C[C@H](Nc1ncnc2cccnc12)c1cc2cccc(Cl)c2c(C(=O)N(C)C)n1` [Compound 224], for which the IC50 in experiment [1] was greater than 10 µM; in experiment [2], less than 1 µM; in experiment [3], less than 10 µM; in experiment [4] it was less than 10 µM.
With `C[C@H](Nc1ncnc2cccnc12)c1cc2cccc(Cl)c2c(C(=O)N2CCNC(=O)C2)n1` [Compound 225], the IC50 in experiment [1] is less than 10 µM; in experiment [2], less than 1 µM; in experiment [3], greater than 10 µM; in experiment [4], less than 1 µM.
In the case of `C[C@H](Nc1ncnc2cccnc12)c1cc2cccc(Cl)c2c(C(=O)N2CCC(F)(F)CC2)n1` [Compound 226], the IC50 in experiment [1] was greater than 10 µM; in experiment [2], less than 10 µM; in experiment [3], greater than 10 µM; in experiment [4], less than 1 µM.
On to `C[C@H](Nc1ncnc2scnc12)c1cc2cccc(Cl)c2c(C(=O)N2CCCOCC2)n1` [Compound 227], for which the IC50 in experiment [1] is less than 10 µM; in experiment [2], less than 10 µM; in experiment [3], less than 10 µM; in experiment [4], less than 0.1 µM.
On to `C[C@H](Nc1ncnc2scnc12)c1cc2cccc(Cl)c2c(C(=O)N2CCCCC2)n1` [Compound 229], for which the IC50 in experiment [1] is less than 10 µM; in experiment [2], less than 10 µM; in experiment [3] it was less than 1 µM; in experiment [4], less than 0.1 µM.
With `C[C@H](Nc1ncnc2cccnc12)c1cc2cccc(Cl)c2c(C(=O)N2CCCCC2)n1` [Compound 230], the IC50 in experiment [1] is less than 10 µM; in experiment [2], less than 1 µM; in experiment [3], greater than 10 µM; in experiment [4], less than 1 µM.
Consider `C[C@H](Nc1ncnc2cccnc12)c1cc2cccc(Cl)c2c(C(=O)N2CCCOCC2)n1` [Compound 231], for which the IC50 is less than 10 µM in experiment [1], less than 10 µM in experiment [2], greater than 10 µM in experiment [3] and less than 1 µM in experiment [4].
Consider `C[C@H](Nc1ncnc2cccnc12)c1cc2cccc(Cl)c2c(C(=O)N2CCC(O)CC2)n1` [Compound 233], for which the IC50 in experiment [1] was less than 10 µM; in experiment [2] it was less than 10 µM; in experiment [3], greater than 10 µM; in experiment [4] it was less than 1 µM.
As to `C[C@@H](Nc1ncnc2[nH]cnc12)c1cc2cccc(Cl)c2c(CN2CCCC2)n1` [Compound 239], the IC50 in experiment [1], in experiment [2], in experiment [3] and in experiment [4] was greater than 10 µM in each case.
Consider `C[C@H](Nc1ncnc2cccnc12)c1cc2cccc(-c3cnn(C)c3)c2c(N2CCN(C)CC2)n1` [Compound 243], for which the 50% inhibitory concentration (IC50) in experiment [1] was greater than 10 µM; in experiment [2] it was less than 10 µM; in experiment [3], less than 10 µM; in experiment [4] it was less than 1 µM.
For `COCCN(C)C(=O)c1nc([C@H](C)Nc2ncnc3cccnc23)cc2cccc(Cl)c12` [Compound 244], the IC50 is greater than 10 µM in experiment [1], less than 10 µM in experiment [2], greater than 10 µM in experiment [3] and less than 1 µM in experiment [4].
In the case of `C[C@H](Nc1ncnc2cccnc12)c1cc2cccc(Cl)c2c(C(=O)N2CCOC[C@H]2C)n1` [Compound 245], the IC50 in experiment [1] was greater than 10 µM; in experiment [2], less than 1 µM; in experiment [3], greater than 10 µM; in experiment [4] it was less than 1 µM.
With `C[C@H](Nc1ncnc2scnc12)c1cc2cccc(Cl)c2c(C(=O)N2CCOC[C@H]2C)n1` [Compound 246], the IC50 in experiment [1] was less than 10 µM; in experiment [2], less than 10 µM; in experiment [3] it was less than 10 µM; in experiment [4], less than 1 µM.
Consider `COCCN(C)C(=O)c1nc([C@H](C)Nc2ncnc3scnc23)cc2cccc(Cl)c12` [Compound 249], for which the IC50 was less than 10 µM in experiment [1], less than 1 µM in experiment [2], less than 10 µM in experiment [3] and less than 0.1 µM in experiment [4].
